Key:
[1] = Permeability in CALU-3 cells; assay type: in vitro ADME; conditions: human, CALU-3 monolayers, pH 7.4, 37° C., 10 μM compound; for Papp A→B at 90 min, 10 μM: apical-to-basal; for Papp B→A at 90 min, 10 μM: basal-to-apical
Procedure: Permeability in CALU-3 Cells:
Permeability measurements across polarized, confluent CALU-3 cell monolayers grown on permeable filter supports are used to provide information on the potential of a compound to pass the lung epithelium. Apparent permeability coefficients (Papp) of the compounds across the CALU-3 cell monolayers are measured (pH 7.4, 37° C.) in apical-to-basal (AB) and basal-to-apical (BA) transport direction.
CALU-3 cells (1-2×10^5 cells/1 cm^2 area) are seeded on filter inserts (Costar transwell polycarbonate filters, 0.4 μm pore size) and cultured (for 10-12 days DMEM) until tight monolayers are formed. Compounds of interest are dissolved in appropriate solvent (DMSO, 10 mM stock solution). Stock solutions are diluted with HTP-4 buffer (128.13 mM NaCl, 5.36 mM KCl, 1 mM MgSO4, 1.8 mM CaCl2, 4.17 mM NaHCO3, 1.19 mM Na2HPO4×7H2O, 0.41 mM NaH2PO4×H2O, 15 mM HEPES, 20 mM glucose, 0.25% BSA, pH 7.4) to prepare the transport solutions (10 μM compound, final DMSO<=0.5%). The transport solution (TL) is applied to the apical or basolateral donor side for measuring A-B or B-A permeability (3 filter replicates), respectively. The receiver side contains the same buffer as the donor side. After 30 min of accommodation, samples are collected at the start t0=0 min and at the end of the experiment tn=90 min from the donor and at 0, 30, 60, and 90 min also from the receiver chamber. Volume removed is […] by HTP-4 buffer. The compound concentration in the samples is measured by HPLC-MS/MS or scintillation counting. The permeability coefficient (Papp) and efflux ratio are calculated according to: Papp [cm/s]=(concentration receiver [nM]*volume receiver [mL]/time interval [sec])*(1/filter area)*(1/donor concentration [nM]).

[2] = biological target: T1, ENaC (Epithelial Sodium Channel) (Mus musculus, UniProt Q61180+Q9WU38+Q9WU39); experiment: Ussing Chamber assay (short circuit current, amiloride sensitive I_SC) in M-1 cells; assay type: cell-based; conditions: Mouse kidney M-1 cells, apical application, 37° C.
T1 construct: Mouse kidney M-1 cells were cultivated in DMEM containing 5% FCS and 5 μM dexamethasone; endogenous in cells; host or cells: Mouse kidney M-1 cells
T1 sequence (Q61180 1-699): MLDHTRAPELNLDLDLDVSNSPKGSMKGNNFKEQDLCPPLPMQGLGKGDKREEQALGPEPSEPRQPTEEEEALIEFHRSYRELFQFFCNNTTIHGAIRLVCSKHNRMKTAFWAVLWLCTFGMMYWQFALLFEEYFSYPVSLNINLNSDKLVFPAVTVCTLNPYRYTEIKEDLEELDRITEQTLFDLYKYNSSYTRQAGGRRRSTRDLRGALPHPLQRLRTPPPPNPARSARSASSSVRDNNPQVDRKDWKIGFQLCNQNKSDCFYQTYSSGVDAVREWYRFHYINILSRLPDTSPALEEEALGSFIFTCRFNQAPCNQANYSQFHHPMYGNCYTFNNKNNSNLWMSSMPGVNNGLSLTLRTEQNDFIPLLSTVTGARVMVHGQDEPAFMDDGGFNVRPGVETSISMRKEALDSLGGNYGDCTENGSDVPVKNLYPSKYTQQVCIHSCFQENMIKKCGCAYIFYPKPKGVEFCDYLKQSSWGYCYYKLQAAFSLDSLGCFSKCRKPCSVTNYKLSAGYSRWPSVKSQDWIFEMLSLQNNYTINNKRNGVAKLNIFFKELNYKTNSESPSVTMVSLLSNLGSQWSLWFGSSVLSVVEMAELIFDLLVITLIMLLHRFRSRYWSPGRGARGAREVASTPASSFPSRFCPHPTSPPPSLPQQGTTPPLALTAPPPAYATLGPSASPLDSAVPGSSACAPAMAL
T1 sequence (Q9WU38 1-638): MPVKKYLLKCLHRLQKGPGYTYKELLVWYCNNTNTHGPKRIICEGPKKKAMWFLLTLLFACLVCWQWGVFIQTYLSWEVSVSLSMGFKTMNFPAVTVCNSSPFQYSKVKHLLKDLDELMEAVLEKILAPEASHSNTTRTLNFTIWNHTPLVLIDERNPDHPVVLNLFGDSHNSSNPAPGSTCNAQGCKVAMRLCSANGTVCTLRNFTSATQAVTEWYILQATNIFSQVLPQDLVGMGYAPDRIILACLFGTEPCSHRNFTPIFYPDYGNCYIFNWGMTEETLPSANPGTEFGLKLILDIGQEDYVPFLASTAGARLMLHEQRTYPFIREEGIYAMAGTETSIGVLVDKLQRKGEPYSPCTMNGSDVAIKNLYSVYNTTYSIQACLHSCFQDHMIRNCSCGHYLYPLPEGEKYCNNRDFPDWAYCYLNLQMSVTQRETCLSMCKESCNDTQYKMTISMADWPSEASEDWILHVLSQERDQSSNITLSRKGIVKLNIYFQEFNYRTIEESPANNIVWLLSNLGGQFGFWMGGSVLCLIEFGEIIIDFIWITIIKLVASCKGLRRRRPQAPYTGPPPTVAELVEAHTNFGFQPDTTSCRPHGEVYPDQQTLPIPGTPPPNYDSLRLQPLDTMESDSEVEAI
T1 sequence (Q9WU39 1-655): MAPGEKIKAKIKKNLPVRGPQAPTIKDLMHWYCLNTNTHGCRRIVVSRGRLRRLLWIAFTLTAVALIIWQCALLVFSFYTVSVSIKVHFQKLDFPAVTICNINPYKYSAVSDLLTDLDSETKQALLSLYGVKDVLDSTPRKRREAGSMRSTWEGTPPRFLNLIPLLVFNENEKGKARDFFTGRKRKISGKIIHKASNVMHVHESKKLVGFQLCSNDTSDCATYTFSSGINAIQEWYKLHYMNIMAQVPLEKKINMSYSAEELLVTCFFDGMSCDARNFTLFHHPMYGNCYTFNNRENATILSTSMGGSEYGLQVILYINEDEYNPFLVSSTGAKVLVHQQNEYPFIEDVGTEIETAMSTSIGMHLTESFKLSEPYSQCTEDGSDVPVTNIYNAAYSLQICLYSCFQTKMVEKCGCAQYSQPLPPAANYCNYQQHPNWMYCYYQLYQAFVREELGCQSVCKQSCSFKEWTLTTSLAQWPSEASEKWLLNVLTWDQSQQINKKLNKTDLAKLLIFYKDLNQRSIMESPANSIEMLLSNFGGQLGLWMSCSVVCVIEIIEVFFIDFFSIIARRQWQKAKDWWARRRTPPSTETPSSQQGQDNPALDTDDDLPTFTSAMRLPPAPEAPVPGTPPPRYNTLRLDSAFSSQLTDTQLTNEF
Procedure: The IC50 values of the example compounds given above were determined in the Ussing Chamber assay.
Ussing Chamber: Mouse kidney M-1 cells were cultivated in DMEM containing 5% FCS and 5 μM dexamethasone for 10 to 12 days on polyester transwell filters. Filters were inserted into a teflon-coated well-plate which fit into the ussing chamber system. Prior to measurement the medium of M-1 cells was replaced with Caco-2 transport buffer (Invitrogen, Germany). During measurements, the Ussing chamber temperature was kept at 37° C. Short circuit currents (I_sc) were measured in the voltage-clamp mode with the software package Lab View for data acquisition and analysis. The transepithelial electrical resistance (TEER) was determined by the application of voltage steps of ±5 mV every 5 sec. Compounds were administered at a final concentration of 3 μM or at increasing concentrations (1-3-10 μM) to the apical solution. At the end of each experiment the amiloride sensitive I_SC was measured by adding 3 μM amiloride to the apical compartment. Results are expressed as inhibition in percent of the amiloride effect or as IC50.

SMILES	Papp A→B at 90 min, 10 μM [1] [×10⁻⁶ cm/s]	Papp B→A at 90 min, 10 μM [1] [×10⁻⁶ cm/s]	IC50 [2] [nM]
CC[n+]1c(CNC(=O)c2nc(Cl)c(N)nc2N)n(CCO)c2cc(OCC(=O)NCCC[n+]3cccc([O-])c3)ccc21.O=C([O-])C(F)(F)F [Example 1.01]	0.04	0.06	2
CCCCCCN(C)C(=O)c1cc2c(cc1O[C@H]1COC[C@@H]1O)n(CCO)c(CNC(=O)c1nc(Cl)c(N)nc1N)[n+]2CC.O=C([O-])C(F)(F)F [Example 1.15]	0.2	0.08	8
CCn1c(CNC(=O)c2nc(Cl)c(N)nc2N)[n+](CC)c2cc(C(=O)N3CCOCC3)c(N3CCOCC3)cc21 [Example 5.02]	0.09	0.1	3
CCn1c(CNC(=O)c2nc(Cl)c(N)nc2N)[n+](CC)c2ccc(OCCNC(=O)CCN(C)C)cc21.Cl [Example 4.01]	0.2	0.2	1
CCn1c(CNC(=O)c2nc(Cl)c(N)nc2N)[n+](CC)c2ccc(OCC(=O)N(Cc3nc(C)ccc3O)C[C@H](C)O)cc21.O=C([O-])C(F)(F)F [Example 3.05]	0.2	0.3	2
CCn1c(CNC(=O)c2nc(Cl)c(N)nc2N)[n+](CC)c2ccc(OCCNC(=O)[C@H](C)NC)cc21.Cl.[Cl-] [Example 6.02]	0.08	0.06	1
CCCCCOc1cc2c(cc1C(=O)N1CCN(C(=O)OC(C)(C)C)CC1)[n+](CC)c(CNC(=O)c1nc(Cl)c(N)nc1N)n2C[C@H](C)O [Example 1.10]	–	–	52
CCn1c(CNC(=O)c2nc(Cl)c(N)nc2N)[n+](CC)c2ccc(OCCNC(=O)[C@H](C)N(C)C(=O)OC(C)(C)C)cc21 [Example 4.08]	–	–	2
CCn1c(CNC(=O)c2nc(Cl)c(N)nc2N)[n+](CC)c2ccc(OCCNC(=O)C3CCCN3C(=O)OC(C)(C)C)cc21 (stereo not shown) [Example 4.11]	–	–	2
CCn1c(CNC(=O)c2nc(Cl)c(N)nc2N)[n+](CC)c2ccc(OCC(=O)NC3CCNCC3)cc21 [Example 3.24]	–	–	0.1
CCn1c(CNC(=O)c2nc(Cl)c(N)nc2N)[n+](CC)c2ccc(OCCNC(=O)CN3CCC(N)CC3)cc21 [Example 6.05]	–	–	1
CCn1c(CNC(=O)c2nc(Cl)c(N)nc2N)[n+](CC)c2ccc(C(=O)NCCNC(C)=O)cc21 [Example 3.08]	–	–	0.4
CCNC(=O)c1cc2c(cc1OCC(=O)NCCOC)n(CC)c(CNC(=O)c1nc(Cl)c(N)nc1N)[n+]2CC [Example 3.21]	–	–	9
CCn1c(CNC(=O)c2nc(Cl)c(N)nc2N)[n+](CC)c2ccc(OCCNC(=O)[C@H](C)N)cc21 [Example 6.07]	–	–	0.4
CCn1c(CNC(=O)c2nc(Cl)c(N)nc2N)[n+](CC)c2ccc(CNC(=O)Cc3ncccc3O)cc21 [Example 4.03]	–	–	0.4
CCCn1c(CNC(=O)c2nc(Br)c(N)nc2N)[n+](C)c2ccc(OCC(=O)N(C)Cc3nc(C)ccc3O)cc21 [Example 2.01]	–	–	1
CCCn1c(CNC(=O)c2nc(Cl)c(N)nc2N)[n+](C)c2ccc(OCC(=O)N(C)Cc3nc(C)ccc3O)cc21 [Example 1.07]	–	–	3
CCNC(=O)COc1cc2c(cc1C(=O)NC1CCN(C(=O)OC(C)(C)C)CC1)[n+](CC)c(CNC(=O)c1nc(Cl)c(N)nc1N)n2CC [Example 3.23]	–	–	8
CCn1c(CNC(=O)c2nc(Cl)c(N)nc2N)[n+](CC)c2ccc(C(=O)NCCNS(C)(=O)=O)cc21 [Example 3.14]	–	–	0.4
CCn1c(CNC(=O)c2nc(Cl)c(N)nc2N)[n+](CC)c2cc(C(=O)NC3CCN(C(=O)OC(C)(C)C)CC3)c(OCC(=O)O)cc21 [Example 9.01]	–	–	9
CCN1CCC(NC(=O)COc2ccc3c(c2)n(CC)c(CNC(=O)c2nc(Cl)c(N)nc2N)[n+]3CC)CC1 [Example 3.09]	–	–	0.2
CCN(CC)CC(=O)NCCOc1ccc2c(c1)n(CC)c(CNC(=O)c1nc(Cl)c(N)nc1N)[n+]2CC [Example 4.04]	–	–	1
CCNC(=O)c1cc2c(cc1OCC(=O)NC1CCN(C(=O)OC(C)(C)C)CC1)n(CC)c(CNC(=O)c1nc(Cl)c(N)nc1N)[n+]2CC [Example 3.19]	–	–	9
CCNC(=O)c1cc2c(cc1OCC(=O)NC1CCN(C)CC1)n(CC)c(CNC(=O)c1nc(Cl)c(N)nc1N)[n+]2CC [Example 3.18]	–	–	4
CCn1c(CNC(=O)c2nc(Cl)c(N)nc2N)[n+](CC)c2ccc(OCC(=O)NCCN)cc21 [Example 3.25]	–	–	1

Reference: US10155749B2, “Substituted benzimidazolium compounds useful in the treatment of respiratory diseases” (Boehringer Ingelheim International GmbH, priority 2015, dated 2018)
